Data published in US4185096A, “Novel derivatives of pepstatin, their preparation and compositions containing them” (Agence Nationale de Valorisation de la Recherche (ANVAR), priority 1977, dated 1980).
Non-standard residues stand in square brackets, D forms with d. Residues, ends and D or L forms follow the SMILES beside them. *: point of attachment. Sta = CC(C)C[C@H](N)[C@@H](O)CC(=O)O; Isovaleryl = CC(C)CC(=O)*

Assays:
hypertensive rats = assay: blood pressure in rats with renal hypertension (aortic ligature between the renal arteries); type: in vivo, rat; conditions: for decrease of blood pressure: intravenous 350 nmoles, thirteen Saralasin-responder rats, pooled value (2 rats methyl ester, 11 rats arginine salt)
Experimental: The experimental model of renal hypertension developped in rats by ROJO-ORTEGA and GENEST [Can. J.Phys. Pharm. 46 883-885 (1968)] was used.
A complete ligature of the aorta between the renal arteries was performed in twenty male Sprague-Dawley rats, weighing 300 g. They were investigated between 5 and 10 days after surgery. The blood pressure was measured in the conscious unrestrained rats, through a carotid cannula inserted 24 hours before measurements were made.
The maximal decrease in blood pressure induced by an injection of "Saralasin" was compared [Sar 1, Ala-8 Angiotensin II] in the same animals, to the maximum fall in blood pressure induced by the soluble derivatives of pepstatin according to the invention.
In these thirteen rats, the average blood pressure decrease was 44.5±8.5 mmHg. The intravenous injection of 350 nmoles of pepstatinyl-Arginine-O-Methyl Ester (2 rats), or the Arginine salt of Pepstatinyl (11 rats) decreased blood pressure by 48.3±8.2 mmHg. The maximal fall in blood pressure was obtained 5 minutes after Saralasin, and 6 minutes after soluble pepstatin. Blood pressure returned to the control level 10 minutes after the injection of both inhibitors.

hog renin = assay: in vitro inhibition of hog renin on synthetic N-acetylated tetradecapeptide substrate, fluorimetry, Dixon plot; type: biochemical; conditions: 10 milli-Goldblatt units hog renin, pH 6, one hour, 37° C., Dixon representation; read-out: inhibition constant
Experimental: 10 milli-Goldblatt units of hog renin, from the same source as above, were incubated at pH 6 for one hour at 37° C. in the presence of a synthetic substrate constituted by a N-acetylated renin tetradecapeptide [GALEN et al. Biochem. Biophys. Acta, 523, 485-493 (1978)]. The tetrapeptide quantity produced per hour of incubation was measured by fluorimetry. Three different concentrations of N-acetylated tetradecapeptide were used, that is to say 2.3, 4.6 and 9.3 nmoles with increasing amounts of pepstatin or methyl ester of pepstatin-[…].25, 0.50 and 0.75 10^-6 mole/l).

SMILES | rats with a blood pressure fall of 10 mmHg and more (hypertensive rats; among 20 hypertensive rats, intravenous 140 nmoles) [rats] | time of maximal fall in blood pressure after injection (hypertensive rats; intravenous 140 nmoles) [min] | time of return of blood pressure to the control level after injection (hypertensive rats; intravenous 140 nmoles) [min] | average blood pressure decrease (hypertensive rats; intravenous 140 nmoles, thirteen responder rats) [mmHg] | Ki (hog renin) [nM] | decrease of blood pressure (hypertensive rats) [mmHg]
CNCC(=O)N[C@@H](CCCN=C(N)N)C(=O)N[C@H](C(=O)N[C@@H](Cc1ccc(O)cc1)C(=O)N[C@H](C(=O)N[C@@H](Cc1cnc[nH]1)C(=O)N1CCC[C@H]1C(=O)N[C@@H](C)C(=O)O)C(C)C)C(C)C [Saralasin, Sar 1, Ala-8 Angiotensin II] | 13 | 5 | 10 | 44.5±8.5 |  | 
COC(=O)[C@H](CCCNC(=N)N)NC(=O)C[C@H](O)[C@H](CC(C)C)NC(=O)[C@H](C)NC(=O)C[C@H](O)[C@H](CC(C)C)NC(=O)[C@@H](NC(=O)[C@@H](NC(=O)CC(C)C)C(C)C)C(C)C [methyl ester of pepstatin-arginine] (Isovaleryl-VV[Sta]A[Sta]R-OMe) |  |  |  |  | 315 | 48.3±8.2
CC(C)CC(=O)N[C@H](C(=O)N[C@H](C(=O)N[C@@H](CC(C)C)[C@@H](O)CC(=O)N[C@@H](C)C(=O)N[C@@H](CC(C)C)[C@@H](O)CC(=O)N[C@@H](CCCNC(=N)N)C(=O)O)C(C)C)C(C)C [pepstatin-arginine] (Isovaleryl-VV[Sta]A[Sta]R-OH) |  |  |  |  |  | 48.3±8.2
